Assay [1] concerns the target T1, vasopressin V2 receptor (rat kidney medullary) (Rattus norvegicus, UniProt Q00788).
T1 construct: Medullary tissues from rat kidneys are dissected out; from tissue; host or cells: rat kidney medulla membranes
Briefly: Binding Assay to Rat Kidney Medullary V2 Receptors. As to conditions: for inhibition at 10 µM: rat kidney V2. On the procedure: Binding Assay to Rat Kidney Medullary V2 Receptors
Medullary tissues from rat kidneys are dissected out, cut into small pieces and soaked in a […] sodium chloride solution containing 1.0 mM EDTA with many changes of the liquid phase, until the solution is clear of blood. […] The tissue is homogenized in a 0.25M sucrose solution containing 1.0 mM EDTA and 0.1 mM PMSF using a Potter-Elvehjem homogenizer with a teflon pestle. The homogenate is filtered through several layers (4 layers) of cheese cloth. The filtrate is rehomogenized using a dounce homogenizer, with a tight fitting pestle. The final homogenate is centrifuged at 1500×g for 15 min. The nuclear pellet is discarded and the supernatant fluid recentrifuged at 40,000×g for 30 min. The resulting pellet formed contains a dark inner part with the exterior, slightly pink. The pink outer part is suspended in a small amount of 50.0 mM Tris.HCl buffer, pH 7.4. The protein content is determined by the Lowry's method (Lowry et al., J. Biol. Chem., 1953). The membrane suspension is stored at -70° C., in 50.0 mM Tris.HCl, containing 0.2% inactivated BSA and 0.1 mM PMSF in aliquots of 1.0 ml containing 10.0 mg protein per ml of suspension until sue in subsequent binding experiments.
For binding experiments, the following is added in ml volume to wells of a 96 well format of a microtiter plate: 100.0 ml of 100.0 mM Tris.HCl buffer containing 0.2% heat inactivated BSA, 10.0 mM MgCL2 and a mixture of protease inhibitors: leupeptin, 1.0 mg %; aprotinin, 1.0 mg % 1,10-phenanthroline, 2.0 mg %; trypsin inhibitor, and 0.1 mM PMSF, 20.0 ml of [^3 H] Arginine^8, vasopressin (S.A. 75.0 Ci/mmole) at 0.8 nM and the reaction initiated by the addition of 80.0 ml of tissue membranes (200.0 mg tissue protein). The plates are left undisturbed on the bench top for 120 minutes to reach equilibrium. Non-specific binding is assessed in the presence of 1.0 mM of unlabeled ligand, added in 20 ml volume. For test compounds, these are solubilized in 50% dimethylsulfoxide (DMSO) and added in 20.0 ml volume to a final incubation volume of […]. Upon completion of binding, the content of each well is filtered off, using a Brandel® cell Harvester (Gaithersburg, Md.). The radioactivity trapped on the filter disk by the ligand-receptor complex is assessed by liquid scintillation counting in a Parkard LS Counter, with an efficiency of 65% for tritium.

The target in assay [2] is T2, human V2 vasopressin receptor (Homo sapiens, UniProt P30518).
T2 construct: expressed in transfected cells; host or cells: mouse fibroblast cell line LV-2
T2 sequence (P30518 whole entry): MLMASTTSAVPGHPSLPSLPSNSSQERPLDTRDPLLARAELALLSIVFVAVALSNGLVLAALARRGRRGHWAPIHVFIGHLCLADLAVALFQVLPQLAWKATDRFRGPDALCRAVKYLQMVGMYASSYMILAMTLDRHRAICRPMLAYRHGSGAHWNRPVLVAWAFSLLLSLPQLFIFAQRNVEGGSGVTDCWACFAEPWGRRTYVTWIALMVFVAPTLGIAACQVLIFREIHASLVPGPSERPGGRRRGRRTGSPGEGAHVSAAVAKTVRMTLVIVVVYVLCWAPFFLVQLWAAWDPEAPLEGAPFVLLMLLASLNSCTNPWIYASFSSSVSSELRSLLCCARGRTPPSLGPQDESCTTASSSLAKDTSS
Briefly: Binding to Membranes of Mouse Fibroblast Cell Line (LV-2) Transfected with the cDNA Expressing the Human V2 Vasopressin Receptor. The protocol: Binding to Membranes of Mouse Fibroblast Cell Line (LV-2) Transfected with the cDNA Expressing the Human V2 Vasopressin Receptor
Flasks of 175 ml capacity, continuing attached cells grown to confluence, are cleared of culture medium by aspiration. The flasks containing the attached cells are rinsed with 2×5 ml of phosphate buffered saline (PBS) and the liquid aspirated off each time. […] The protein content is determined by the Lowry method and the receptor membranes are suspended in 50.0 mM Tris.HCl buffer containing 0.1 mM phenylmethylsulfonylfluoride (PMSF) and 0.2% bovine serum albumin (BSA) to give 2.5 mg receptor protein per ml of suspension.
For binding experiments, the following is added in ml volume to wells of a 96 well format of a microtiter plate: 100.0 ml of 100.0 mM Tris.HCl buffer containing 0.2% heat inactivated BSA, 10.0 mM MgCl2 and a mixture of protease inhibitors: leupeptin, 1.0 mg %; aprotinin, 1.0 mg %; 1,10-phenanthroline, 2.0 mg %; trypsin inhibitor, 10.0 mg % and 0.1 mM PMSF., 20.0 ml of [^3 H] […] Non specific binding is assessed in the presence of 1.0 mM of unlabeled ligand, added in 20 ml volume. […] The radioactivity trapped on the filter disk by the ligand-receptor complex is assessed by liquid scintillation counting in a Packard LS Counter, with an efficiency of 65% for tritium.

Molecules are shown by their SMILES.

Among the data in patent publication US5849735A, “Tricyclic benzazepine vasopressin antagonists” (American Cyanamid Company, priority 1995, dated 1998) are IC50 and inhibition values, retold here.

T1 sequence (Q00788 whole entry): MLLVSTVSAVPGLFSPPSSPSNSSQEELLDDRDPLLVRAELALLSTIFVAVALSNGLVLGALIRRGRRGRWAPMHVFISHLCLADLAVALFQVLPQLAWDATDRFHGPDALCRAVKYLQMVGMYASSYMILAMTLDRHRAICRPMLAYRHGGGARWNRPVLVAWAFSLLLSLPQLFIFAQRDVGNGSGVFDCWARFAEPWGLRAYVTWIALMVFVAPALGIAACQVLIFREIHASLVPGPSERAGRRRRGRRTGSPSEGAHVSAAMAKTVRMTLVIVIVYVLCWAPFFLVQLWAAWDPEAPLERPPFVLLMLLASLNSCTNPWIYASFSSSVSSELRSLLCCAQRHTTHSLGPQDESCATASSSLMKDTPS

For the compound `Cc1ccc(F)cc1C(=O)Nc1ccc(C(=O)N2Cc3sccc3Cc3ccccc32)cn1` [Example 2, N-[5-[(9,10-Dihydro-4H-thieno[2,3-c][1]benzazepin-9-yl)carbonyl]-2-pyridinyl]-5-fluoro-2-methylbenzamide], the IC50 (commonly the concentration that gives 50% inhibition) in assay [1] (rat kidney medullary V2 receptors) turned out to be 29 nM. As for `Cc1ccc(F)cc1C(=O)Nc1ccc(C(=O)N2Cc3ccccc3Oc3ncccc32)cn1` [Example 4, N-[5-(Pyrido[2,3-b][1,4]benzoxazepin-5(6H)-ylcarbonyl)-2-pyridinyl]-5-fluoro-2-methylbenzamide], in assay [1], the inhibition (in general, how much of the control response was suppressed) at 10 µM came to 20%. Consider `CCCCOc1ccc(C(=O)N2Cc3ccccc3Cc3ccccc32)cc1` [Example 24], for which the inhibition at 10 µM in assay [2] (** human V2, LV-2 membranes, 10 μM) worked out at 26%. `O=C(c1ccc(-c2ccccc2)cc1)N1Cc2ccccc2Oc2ccccc21` [Example 26, 10-([1,1'-Biphenyl]-4-ylcarbonyl)-10,11-dihydrodibenz[b,f][1,4]oxazepine]: testing at 10 µM in assay [1] gave an inhibition of 29%. Take `O=C(c1ccc(-c2ccccc2)cc1)N1Cc2sccc2Cc2ccccc21` [Example 27, 9-([1,1'-Biphenyl]-4-ylcarbonyl)-9,10-dihydro-4H-thieno[2,3-c][1]benzazepine]: the IC50 in assay [2] (** human V2 receptor, LV-2 membranes) was found to be 1800 nM.

For the compound `O=C(c1ccccc1)c1ccc(C(=O)N2Cc3ccccc3Oc3ccccc32)cc1` [Example 32, 10-(4-Benzoylbenzoyl)-10,11-dihydrodibenz[b,f][1,4]oxazepine], testing at 10 µM in assay [1] gave an inhibition of 33%. The same measure, in the same setting: then `Cc1ccc(F)cc1C(=O)Nc1ccc(C(=O)N2Cc3ccccc3CCc3ccccc32)cn1` [Example 45], with 62%.
